Experimental data reported in PMC12418703, “Avenanthramides and avenacosides as biomarkers of oat intake: a pharmacokinetic study of solid and liquid oat consumption under single and repeated dose conditions” (Nutrition Journal, 2025).
Where two headings read alike, the source gives them in different places.

How the values were obtained:
[1] = Plasma pharmacokinetics after a single dose of liquid or solid oat product (compartmental PK model); format: in vivo, humans; parameters: V/F: unit not given here; conditions: for Cmax / half-life / k el / Tmax: both sexes, oral; for Cmax / half-life / k el: human, plasma; for Cmax / half-life / k el / Tmax / T1/2 / ka / V/F / AUC(norm): single dose; for k el: elimination rate (Table 2), read-out: ke (converted); for Tmax: human plasma, derived from PK model; for V, population estimate (RSE%) / ka, population estimate (RSE%) / ke, population estimate (RSE%): Table S1 compartmental model; for ka: absorption rate (Table 2); for V/F: distribution volume over bioavailability; for AUC(norm): normalized for nmol intake
Description: A non-blinded, randomized two-way crossover study with two different oat products (solid or liquid) was designed to investigate the AVA and AVE PK after a single dose and after repeated dosing at three different doses, for respective food (Fig. 2). Since this is the first study of its kind, it is impossible to make any formal calculation of the number of subjects needed to show meaningful differences in plasma biomarker concentrations, since the variation is unknown. However, similar studies aimed for BFI discovery and validation of dose-response have typically used 5–30 subjects. We therefore considered 23 individuals as a good compromise between feasibility and possibilities to assess variation in biomarker concentrations, estimate pharmacokinetic parameters, dose response and performing modelling with good precision. A scientist not involved in the study, conducted the randomization using the RAR method (RandomizeR package) in R software environment and provided lists with allocated treatment sequences. The study was conducted in two phases. In the first phase, blood samples were drawn from 11 men and 12 women for 24 h after consumption of a single dose of either a solid or a liquid oat product on-site. Breakfast and lunch were also provided on-site. A single dose of solid (62 g of oat flakes) or liquid (196 mL of oat drink) containing individual AVAs and AVEs shown in Table 1 were consumed, respectively. Blood plasma samples were drawn for 24 h (0 h, 0.25 h, 0.5 h, 0.75 h, 1 h, 1.5 h, 2 h, 3 h, 4 h, 5 h, 6 h, 7 h, 8 h, 24 h). After the 24 h, at the second phase of the study, the corresponding product was further consumed three times per day for four days at either a low, medium, or high intake dose (98, 196 and 392 mL for liquid oats and 31, 62 and 123 g for oat flakes with corresponding contents of AVAs and AVEs (Table 1) in a Latin square design. Therefore, a total number of 8 participants (2 males and 6 females) were randomized to the low dose, 9 participants (3 males and 6 females) for medium dose and 6 participants (3males and 3 females) for the high dose. Participants consumed the provided products at home and were instructed to follow their habitual diets with restriction on the consumption of oat products. A list of relevant foods was provided as a guide. The oat flakes were pre-portioned into individual bags and could be consumed without heating, mixed with yoghurt, cottage cheese, sour milk or any liquid. Participants were instructed to consume the full amount, including the liquid or food the oats were mixed with. Liquid oat products were weighed prior consumption, and they were to be consumed without any additional food. In all cases the time of oat intake was recorded in a food journal. On the fifth day of phase II, a fasting sample was drawn. Fecal samples were collected at baseline and at the end of phase II of the intervention. Between each study period, there was a wash-out period of eight days where participants consumed their habitual diet. After the washout, participants started with a single dose and repeated dosing for the other product in the same way as for the first. The participants were instructed to avoid foods containing oats during the last three days prior to the start of the study and during the last three days of the wash-out period. Compliance was assessed based on information provided in a compliance journal during the study weeks as well as through 2-day food records. The oat products used in the study were provided to the participants. The flakes for the single dose were consumed with water ad lib and for the repeated dose they could be mixed with water, yoghurt, milk, sour milk or cottage cheese with the condition that all the amount of the oat product is consumed. The oat drink was consumed without any other product.
All blood samples were collected into EDTA-coated tubes by a trained nurse. […]

[2] = test system: Feacalibacterium prausnitzii; test: Association of F. prausnitzii relative abundance at baseline with Cmax and AUC strata (logistic regression); parameters: species or system humans; conditions: liquid, solid, or combined; single dose phase I
Experimental: DNA was extracted from approximately 35 mg of each of the 451 fecal samples using the NucleoSpin Soil kit (Macherey-Nagel, 740780.250 M), following the manufacturer’s instructions. DNA yield was quantified using the Qubit 1X dsDNA Broad Range assay kit (Thermo Fisher Scientific, Q33266). For metagenomic shotgun sequencing, libraries were prepared with the MGIEasy Fast FS DNA Library Prep Set (MGI Tech Co., Ltd., 940-000030-00, Werheim, Germany), using 400 ng of DNA per sample. The library preparation process included DNA shearing for 12.5 min, followed by end repair, A-tailing, and magnetic bead-based cleanup. Adapter ligation and cleanup were then performed, followed by PCR amplification and magnetic bead-based size selection of the final library product. Library quality was assessed using the Qubit 1X dsDNA HS Assay Kit (Thermo Fisher Scientific, Q33231) and the Agilent High Sensitivity D1000 Assay Kit (Agilent Technologies, 5067–5584 and 5067–5585, Santa Clara, CA, USA). Pooled libraries were circularized, barcoded, and used as templates for DNA nanoball preparation. The nanoballs were then analyzed on the DNBSEQ-T7 platform (MGI Tech Co., Ltd.) using the DNBSEQ-T7RS High-throughput Sequencing Set (FCL PE150), according to the manufacturer’s guidelines.
Raw metagenomic reads underwent quality control to remove low-quality sequences, adapters, and contaminants using Fastp (version 0.23.2, default parameters). High-quality reads were filtered to exclude human reads (GRCh38_noalt_as) using Bowtie2 [38] (version 2.5.3). The quality-filtered reads were then aligned to the taxonomy database using MetaPhlAn (version 4.0.6, default parameters) to generate relative abundance profiles. For inclusion in the analysis, a species was required to be present in at least three samples.
For the seven metabolites AVE A, AVE B, AVA 2c, AVA 2f, AVA 2fd, AVA 2p, AVA 2pd analysed at phase I after the single dose of oat products, Cmax and area under the curve (AUC) were stratified based on less than the median or more or equal to the […]. Thereafter, for each metabolite, it was investigated whether the relative abundance of F. prausnitzii at baseline could predict the strata since this bacterium has previously been reported to be responsible for production of their dihydro-metabolites. Logistic regression with a binomial distribution and a logistic link function was used to separately analyze the liquid and solid products. When analyzing liquid and solid products together, a generalized linear mixed model with a binomial distribution and a logistic link function was used, with identity included as a random factor.

[3] = 62 g of oat flakes, solid oat product (62 g oat flakes)
[4] = 196 mL of oat drink, liquid oat product (196 mL oat drink)

| association between F. prausnitzii abundance at baseline and Cmax and AUC [2] | SMILES | Cmax ([1]; 62 g of oat flakes, solid) [nM] | half-life ([1]; 62 g of oat flakes, solid) [h] | k el ([1]; 62 g of oat flakes, solid) [s⁻¹] | Cmax ([1]; 196 mL of oat drink, liquid) [nM] | half-life ([1]; 196 mL of oat drink, liquid) [h] | k el ([1]; 196 mL of oat drink, liquid) [s⁻¹] | Tmax [1, 3] [h] | Tmax [1, 4] [h] | V, population estimate (RSE%) ([1]; liquid) | ka, population estimate (RSE%) ([1]; liquid) | ke, population estimate (RSE%) ([1]; liquid) | T1/2 ([1]; liquid) | ka ([1]; liquid) | V/F ([1]; liquid) | V, population estimate (RSE%) ([1]; solid) | ka, population estimate (RSE%) ([1]; solid) | ke, population estimate (RSE%) ([1]; solid) | ka ([1]; solid) [h⁻¹] | V/F ([1]; solid) | further results |
| --- | --- | --- | --- | --- | --- | --- | --- | --- | --- | --- | --- | --- | --- | --- | --- | --- | --- | --- | --- | --- | --- |
|  | CC1OC(OC2C(OC3CCC4(C)C(=CCC5C4CCC4(C)C5CC5OC6(CCC(C)(COC7OC(CO)C(O)C(O)C7O)O6)C(C)C54)C3)OC(CO)C(OC3OC(CO)C(O)C(OC4OC(CO)C(O)C(O)C4O)C3O)C2O)C(O)C(O)C1O (centres unmarked) [AVE B, Avenacoside B] | 0.64 ± 0.07 | 3.76 ± 0.29 | 5e-05 | 0.44 ± 0.05 | 2.5 | 7.5e-05 | 3.29 ± 0.14 | 2.98 ± 0.13 | 2200 (3) L | 0.41 (9) 1/h | 0.27 (3) 1/h | 2.56 ± 0.20^2 h | 0.41 ± 0.02 h⁻¹ | 2079 ± 212 | 2600 (21) L | 0.45 (22) 1/h | 0.19 (20) 1/h | 0.46 ± 0.03 | 2606 ± 266 | AUC(norm) ([1]; liquid): 1.8 ± 0.2 nM·h; AUC(norm) ([1]; solid): 2.1 ± 0.3 nM·h |
| no significant associations | COc1cc(/C=C/C=C/C(=O)Nc2ccc(O)cc2C(=O)O)ccc1O [AVA 2fd] | 7.34 ± 0.78 | 1.65 ± 0.13 | 0.000117 | 2.46 ± 0.25 | 1.3 | 0.000144 | 1.53 ± 0.07 | 1.01 ± 0.04 | 210 (13) L | 3.6 (10) 1/h | 0.52 (14) 1/h | 1.33 ± 0.10 h | 3.6 ± 0.2^1 1/h | 211 ± 21^2 | 320 (22) L | 2.2 (10) 1/h | 0.42 (17) 1/h | 2.2 ± 0.12 | 314 ± 32 |  |
| no significant associations | O=C(/C=C/C=C/c1ccc(O)cc1)Nc1ccc(O)cc1C(=O)O [AVA 2pd] | 16.8 ± 1.78 | 2.63 ± 0.2 | 7.22e-05 | 3.1 ± 0.31 | 2.5 | 7.78e-05 | 2.31 ± 0.1 | 1.6 ± 0.07 | 130 (16) L | 2.4 (9) 1/h | 0.30 (13) 1/h | 2.45 ± 0.19 h | 2.40 ± 0.1^1 1/h | 131 ± 13^2 | 190 (22) L | 1.5 (10) 1/h | 0.27 (17) 1/h | 1.48 ± 0.10 | 189 ± 19 |  |
|  | CC1OC(OC2C(OC3CCC4(C)C(=CCC5C4CCC4(C)C5CC5OC6(CCC(C)(COC7OC(CO)C(O)C(O)C7O)O6)C(C)C54)C3)OC(CO)C(OC3OC(CO)C(O)C(O)C3O)C2O)C(O)C(O)C1O (centres unmarked) [AVE A, Avenacoside A] | 2.03 ± 0.22 | 3.32 ± 0.26 | 5.83e-05 | 1.31 ± 0.14 | 3.2 | 6.39e-05 | 1.78 ± 0.08 | 2.51 ± 0.11 | 5900 (3) L | 1.4 (3) 1/h | 0.21 (10) 1/h | 3.17 ± 0.24 h | 1.4 ± 0.1^1 1/h | 6718 ± 686^2 | 9700 (2) L | 2.7 (8) 1/h | 0.22 (6) 1/h | 2.3 ± 0.13 | 11,055 ± 1130 |  |
